Assays:
Assay type in all cases: cell-based
[1] = tested on: SNU-16 (FGFR2-amplification) cells; assay: cell proliferation assay (CellTiterGlo), SNU-16 cells; conditions: Homo sapiens, 72 hours
Summary of the method: (§1)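 IC50 for growth inhibition, normalized to DMSO-treated cells as viable. Cell number was estimated from ATP luminescence (CellTiterGlo) following incubation with compound at varying concentrations.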

[2] = tested on: DMS-114 (FGFR1 overexpression) cells; assay: cell proliferation assay (CellTiterGlo), DMS-114 cells; conditions: Homo sapiens, DMS-114, 72 h
Summary of the method: as §1

[3] = tested on: UM-UC-14 (FGFR3-S249C) cells; assay: cell proliferation assay (CellTiterGlo), UM-UC-14 cells; conditions: UMUC14, 72 h
Summary of the method: as §1

[4] = tested on: RT-112 (FGFR3-Tacc3 fusion) cells; assay: cell proliferation assay (CellTiterGlo), RT-112 cells; conditions: Homo sapiens, RT-112, RT112 cells, 72 hours
Summary of the method: as §1

Row | SMILES | IC50 [1] [nM] | IC50 [2] [nM] | IC50 [3] [nM] | IC50 [4] [nM]
1 | Cc1nc2ccc(Oc3ccc4ncc(-c5cnn(CC6CN(CC(=O)N7CCC7)C6)c5)nc4c3Cl)cc2[nH]1 [Compound 320] | 20 to 100 | ≥ 400 | 100 to 400 | 20 to 100
2 | Cc1nc2ccc(Oc3ccc4ncc(-c5cnn(CC(=O)N6CCOCC6)c5)nc4c3Cl)cc2[nH]1 [Compound 285] | 20 to 100 | ≥ 400 | 20 to 100 | 20 to 100
3 | Cc1nc2ccc(Oc3ccc4ncc(-c5cnn(CCC6CCS(=O)(=O)C6)c5)nc4c3Br)cc2[nH]1 (stereo not drawn) [Compound 278] | < 20 | ≥ 400 | < 20 | < 20
4 | Cc1nc2ccc(Oc3ccc4ncc(-c5cnn(C6CC7COCC(C6)N7)c5)nc4c3Cl)cc2[nH]1 (stereo not drawn) [Compound 187] | 20 to 100 | ≥ 400 | 20 to 100 | 20 to 100
5 | Cc1nc2ccc(Oc3ccc4ncc(-c5cnn(CC6CC(N7CCC7)C6)c5)nc4c3Cl)cc2[nH]1 (stereo not drawn) [Compound 291] | 20 to 100 | ≥ 400 | 20 to 100 | 20 to 100
6 | Cc1nc2c(F)c(Oc3ccc4ncc(-c5cnn(CC6CC(F)(F)C6)c5)nc4c3Cl)ccc2[nH]1 [Compound 229] | 20 to 100 | ≥ 400 | 20 to 100 | 20 to 100
7 | Cc1nc2ccc(Oc3ccc4ncc(-c5cnn(CC6CCC(=O)CC6)c5)nc4c3Cl)cc2[nH]1 [Compound 327] | < 20 | ≥ 400 | < 20 | < 20
8 | Cc1nc2ccc(Oc3ccc4ncc(-c5cnn(C6CCNCC6)c5C)nc4c3Cl)cc2[nH]1 [Compound 263] | 100 to 400 | ≥ 400 | 100 to 400 | 100 to 400
9 | Cc1nc2ccc(Oc3ccc4ncc(-c5cnn(CC6CC(F)(F)C6)c5)nc4c3C3=CC(C)(C)OC3)cc2[nH]1 [Compound 76] | < 20 | 100 to 400 | < 20 | < 20
10 | Cc1nc2ccc(Oc3ccc4ncc(-c5cnn(CCO)c5)nc4c3Cl)c(F)c2[nH]1 [Compound 268] | 20 to 100 | ≥ 400 | 20 to 100 | 20 to 100
11 | Cc1nc2ccc(Oc3ccc4ncc(-c5cnn(C6CN(CC(=O)N7CC(F)(F)C7)C6)c5)nc4c3Cl)cc2[nH]1 [Compound 226] | 100 to 400 | ≥ 400 | 20 to 100 | 20 to 100
12 | Cc1nc2ccc(Oc3ccc4ncc(-c5cnn(CC6CC(F)(F)C6)c5C)nc4c3Cl)cc2[nH]1 [Compound 275] | ≥ 400 | ≥ 400 | 100 to 400 | ≥ 400
13 | Cc1nc2ccc(Oc3ccc4ncc(-c5cnn(CC6(O)CCC6)c5)nc4c3Cl)cc2[nH]1 [Compound 146] | 20 to 100 | ≥ 400 | 20 to 100 | 20 to 100
14 | FC1(F)CC(Cn2cc(-c3cnc4ccc(Oc5ccc6[nH]c(C(F)(F)F)nc6c5)c(Cl)c4n3)cn2)C1 [Compound 224] | ≥ 400 | ≥ 400 | ≥ 400 | ≥ 400
15 | Cc1nc2ccc(Oc3ccc4ncc(-c5cnn(C6C7CCC6CNC7)c5)nc4c3Cl)cc2[nH]1 (stereo not drawn) [Compound 223] | 20 to 100 | 100 to 400 | 20 to 100 | 20 to 100
16 | COC1CN([C@H]2C[C@@H](n3cc(-c4cnc5ccc(Oc6ccc7nc(C)[nH]c7c6)c(Cl)c5n4)cn3)C2)C1 [Compound 201] | 20 to 100 | ≥ 400 | 20 to 100 | 20 to 100
17 | CCOC(Cn1cc(-c2cnc3ccc(Oc4ccc5nc(C)[nH]c5c4)c(Cl)c3n2)cn1)OCC [Compound 388] | 100 to 400 | ≥ 400 | 100 to 400 | 100 to 400
18 | Cc1nc2cc(Oc3ccc4ncc(-c5cnn(CC(=O)N6CCC(F)(F)CC6)c5)nc4c3Cl)ccc2[nH]1 [Compound 332] | 20 to 100 | ≥ 400 | 20 to 100 | 20 to 100

The next lines start with results.

Row | IC50 [1] [nM] | SMILES | IC50 [2] [nM] | IC50 [3] [nM] | IC50 [4] [nM]
19 | 20 to 100 | Cc1nc2ccc(Oc3ccc4ncc(-c5cnn(CC6CCC(N(C)C)CC6)c5)nc4c3Cl)cc2[nH]1 (stereo not drawn) [Compound 338] | 100 to 400 | 20 to 100 | 20 to 100
20 | < 20 | Cc1nc2ccc(Oc3ccc4ncc(-c5cnn([C@@H](C)CO)c5)nc4c3Cl)c(F)c2[nH]1 [Compound 106] | 100 to 400 | < 20 | < 20
21 | 100 to 400 | Cc1nc2ccc(Oc3ccc4ncc(-c5cnn(CC6CC(F)(F)C6)c5)nc4c3C3CC3)cc2[nH]1 [Compound 216] | ≥ 400 | 100 to 400 | 100 to 400
22 | 100 to 400 | Cc1nc2ccc(Oc3ccc4ncc(-c5cn(CC6CC(F)(F)C6)nc5C)nc4c3Cl)cc2[nH]1 [Compound 276] | ≥ 400 | 100 to 400 | 20 to 100
23 | 20 to 100 | Cc1nc2ccc(Oc3ccc4ncc(-c5cnn(C6CN(CC(F)F)C6)c5)nc4c3Cl)cc2[nH]1 [Compound 221] | ≥ 400 | 20 to 100 | 20 to 100
24 | 20 to 100 | Cc1nc2ccc(Oc3ccc4ncc(-c5cnn(CC6COCCN6C)c5)nc4c3Cl)cc2[nH]1 (stereo not drawn) [Compound 245] | ≥ 400 | 20 to 100 | 20 to 100
25 | 100 to 400 | Cc1nc2cc(Oc3ccc4ncc(-c5cnn(CC6CC(F)(F)C6)c5)nc4c3Cl)cc(F)c2[nH]1 [Compound 266] | ≥ 400 | 100 to 400 | 100 to 400
26 | 20 to 100 | Cc1nc2ccc(Oc3ccc4ncc(-c5cnn(CC6(O)CC6)c5)nc4c3N3CCOCC3)cc2[nH]1 [Compound 75] | ≥ 400 | 100 to 400 | 100 to 400
27 | 20 to 100 | Cc1nc2ccc(Oc3ccc4ncc(-c5cnn(CC(=O)N6CCC(F)C6)c5)nc4c3Cl)cc2[nH]1 (stereo not drawn) [Compound 290] | ≥ 400 | 20 to 100 | 20 to 100
28 | 20 to 100 | Cc1nc2ccc(Oc3ccc4ncc(-c5cnn(CC6CCNCC6F)c5)nc4c3Cl)cc2[nH]1 (stereo not drawn) [Compound 375] | 100 to 400 | 20 to 100 | < 20
29 | ≥ 400 | Cc1cc2cc(Oc3ccc4ncc(-c5cnn(CC6CCN(C)CC6)c5)nc4c3Cl)ccn2n1 [Compound 345] | ≥ 400 | ≥ 400 | ≥ 400
30 | 20 to 100 | Cc1nc2ccc(Oc3ccc4ncc(-c5cnn(CC6CN(CC#N)C6)c5)nc4c3Cl)cc2[nH]1 [Compound 310] | ≥ 400 | 20 to 100 | 20 to 100
31 | 20 to 100 | Cc1nc2ccc(Oc3ccc4ncc(-c5cnn(CCN6CCC(F)(F)C6)c5)nc4c3Cl)cc2[nH]1 [Compound 252] | ≥ 400 | 20 to 100 | 20 to 100
32 | < 20 | Cc1nc2ccc(Oc3ccc4ncc(-c5cnn(C6CCN(C)CC6)c5)nc4c3Cl)cc2[nH]1 [Compound 370] | 100 to 400 | 20 to 100 | 20 to 100
33 | < 20 | Cc1nc2ccc(Oc3ccc4ncc(-c5cnn([C@H]6C[C@@](C)(O)C6)c5)nc4c3Cl)c(F)c2[nH]1 [Compound 151] | 20 to 100 | < 20 | < 20
34 | < 20 | Cc1nc2ccc(Oc3ccc4ncc(-c5cnn(CC67COC(C6)C7)c5)nc4c3Cl)cc2[nH]1 [Compound 343] | ≥ 400 | 20 to 100 | < 20
35 | 20 to 100 | Cc1nc2ccc(Oc3ccc4ncc(-c5cnn(CC6CC(F)(F)C6)c5)nc4c3Cl)cc2[nH]1 [Compound 387] | ≥ 400 | 20 to 100 | 20 to 100
36 | ≥ 400 | Cc1nc2ccc(Oc3ccc4ncc(-c5cnn(C6CN(c7cccc(N(C)C)n7)C6)c5)nc4c3Cl)cc2[nH]1 [Compound 190] | ≥ 400 | ≥ 400 | ≥ 400
37 | 20 to 100 | Cc1nc2ccc(Oc3ccc4ncc(-c5cnn([C@H]6C[C@H](N7C[C@@H]8C[C@H]7CO8)C6)c5)nc4c3Cl)cc2[nH]1 [Compound 203] | ≥ 400 | 20 to 100 | 20 to 100
38 | 20 to 100 | CNC(=O)CN1CC(Cn2cc(-c3cnc4ccc(Oc5ccc6nc(C)[nH]c6c5)c(Cl)c4n3)cn2)C1 [Compound 315] | ≥ 400 | 20 to 100 | 20 to 100
39 | 20 to 100 | Cc1nc2ccc(Oc3ccc4ncc(-c5cnn(CC(=O)N6CC(O)C6)c5)nc4c3Cl)cc2[nH]1 [Compound 317] | ≥ 400 | ≥ 400 | 100 to 400
40 | ≥ 400 | Cc1nc2ccc(Oc3ccc4ncc(-c5cnn(C67CCN(CC6)C7)c5)nc4c3Cl)cc2[nH]1 [Compound 295] | ≥ 400 | ≥ 400 | ≥ 400
41 | 20 to 100 | Cc1nc2ccc(Oc3ccc4ncc(-c5cnn(C6CCNCC6)c5)nc4c3C)cc2[nH]1 [Compound 293] | 100 to 400 | 20 to 100 | 20 to 100
42 | 20 to 100 | Cc1nc2ccc(Oc3ccc4ncc(-c5cnn(C6CN(C7CN(C)C7)C6)c5)nc4c3Cl)cc2[nH]1 [Compound 230] | ≥ 400 | 20 to 100 | 20 to 100
43 | 100 to 400 | Cc1nc2ccc(Oc3ccc4ncc(-c5cnn(C6CCN(c7cncc(F)c7)CC6)c5)nc4c3Cl)cc2[nH]1 [Compound 197] | ≥ 400 | 100 to 400 | 20 to 100
44 | 20 to 100 | Cc1nc2ccc(Oc3ccc4ncc(-c5cnn(CC6CCN(C)CC6)c5)nc4c3C#N)cc2[nH]1 [Compound 382] | 100 to 400 | 20 to 100 | 20 to 100
45 | < 20 | Cc1nc2ccc(Oc3ccc4ncc(-c5cnn(CC6CCC(O)CC6)c5)nc4c3Cl)cc2[nH]1 (stereo not drawn) [Compound 339] | 100 to 400 | < 20 | < 20

Reference: patent US20240368181A1, “QUINOXALINE DERIVATIVES AND USES THEREOF” (Black Diamond Therapeutics, Inc., priority 2021, published 2024)
